Columns and labels:
Test in all cases: biochemical
Format in all cases: binding
panel of 442 kinases [1] = molecular target: T1, panel of 442 kinases (Homo sapiens, UniProt O94806); conditions: kinase PRKD3; for remaining activity at 1 µM: read-out: PRKD3 (% of control at 1 µM)
T1 construct: purchased Ambit Biosciences (scanMAXX KINOMEscan)
T1 sequence (O94806 1-890): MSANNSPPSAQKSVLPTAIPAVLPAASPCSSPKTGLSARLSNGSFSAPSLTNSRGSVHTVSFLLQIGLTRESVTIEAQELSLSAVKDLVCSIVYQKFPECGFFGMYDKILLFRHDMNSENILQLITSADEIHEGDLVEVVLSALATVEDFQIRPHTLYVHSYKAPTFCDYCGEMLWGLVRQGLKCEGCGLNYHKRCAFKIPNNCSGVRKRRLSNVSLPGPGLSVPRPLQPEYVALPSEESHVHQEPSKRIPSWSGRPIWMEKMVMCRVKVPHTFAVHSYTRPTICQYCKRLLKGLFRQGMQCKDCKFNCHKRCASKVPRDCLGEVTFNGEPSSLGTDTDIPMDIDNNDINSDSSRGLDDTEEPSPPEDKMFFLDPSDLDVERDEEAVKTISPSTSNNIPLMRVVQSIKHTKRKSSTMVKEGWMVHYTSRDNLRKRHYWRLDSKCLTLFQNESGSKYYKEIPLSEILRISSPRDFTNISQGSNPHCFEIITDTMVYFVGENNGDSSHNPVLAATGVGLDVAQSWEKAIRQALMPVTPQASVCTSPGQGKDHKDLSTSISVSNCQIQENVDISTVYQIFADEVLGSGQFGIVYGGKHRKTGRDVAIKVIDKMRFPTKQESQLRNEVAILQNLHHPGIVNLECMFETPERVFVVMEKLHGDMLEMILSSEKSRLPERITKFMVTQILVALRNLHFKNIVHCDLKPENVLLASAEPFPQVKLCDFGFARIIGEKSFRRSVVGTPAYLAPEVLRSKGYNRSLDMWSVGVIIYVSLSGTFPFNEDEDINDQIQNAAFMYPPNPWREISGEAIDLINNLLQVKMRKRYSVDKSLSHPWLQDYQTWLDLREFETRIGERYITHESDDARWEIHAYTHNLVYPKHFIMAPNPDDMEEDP

panel of 442 kinases [2] = molecular target: T2, panel of 442 kinases (Homo sapiens, UniProt P29376); conditions: kinase LTK; for remaining activity at 1 µM: read-out: % of control at 1 µM
T2 construct: purchased Ambit Biosciences (scanMAXX KINOMEscan)

panel of 442 kinases [3] = molecular target: T3, panel of 442 kinases (Homo sapiens, UniProt P52333); conditions: kinase JAK3(JH1domain-catalytic); for remaining activity at 1 µM: read-out: % of control at 1 µM
T3 construct: purchased Ambit Biosciences (scanMAXX KINOMEscan)
T3 sequence (P52333 1-1124): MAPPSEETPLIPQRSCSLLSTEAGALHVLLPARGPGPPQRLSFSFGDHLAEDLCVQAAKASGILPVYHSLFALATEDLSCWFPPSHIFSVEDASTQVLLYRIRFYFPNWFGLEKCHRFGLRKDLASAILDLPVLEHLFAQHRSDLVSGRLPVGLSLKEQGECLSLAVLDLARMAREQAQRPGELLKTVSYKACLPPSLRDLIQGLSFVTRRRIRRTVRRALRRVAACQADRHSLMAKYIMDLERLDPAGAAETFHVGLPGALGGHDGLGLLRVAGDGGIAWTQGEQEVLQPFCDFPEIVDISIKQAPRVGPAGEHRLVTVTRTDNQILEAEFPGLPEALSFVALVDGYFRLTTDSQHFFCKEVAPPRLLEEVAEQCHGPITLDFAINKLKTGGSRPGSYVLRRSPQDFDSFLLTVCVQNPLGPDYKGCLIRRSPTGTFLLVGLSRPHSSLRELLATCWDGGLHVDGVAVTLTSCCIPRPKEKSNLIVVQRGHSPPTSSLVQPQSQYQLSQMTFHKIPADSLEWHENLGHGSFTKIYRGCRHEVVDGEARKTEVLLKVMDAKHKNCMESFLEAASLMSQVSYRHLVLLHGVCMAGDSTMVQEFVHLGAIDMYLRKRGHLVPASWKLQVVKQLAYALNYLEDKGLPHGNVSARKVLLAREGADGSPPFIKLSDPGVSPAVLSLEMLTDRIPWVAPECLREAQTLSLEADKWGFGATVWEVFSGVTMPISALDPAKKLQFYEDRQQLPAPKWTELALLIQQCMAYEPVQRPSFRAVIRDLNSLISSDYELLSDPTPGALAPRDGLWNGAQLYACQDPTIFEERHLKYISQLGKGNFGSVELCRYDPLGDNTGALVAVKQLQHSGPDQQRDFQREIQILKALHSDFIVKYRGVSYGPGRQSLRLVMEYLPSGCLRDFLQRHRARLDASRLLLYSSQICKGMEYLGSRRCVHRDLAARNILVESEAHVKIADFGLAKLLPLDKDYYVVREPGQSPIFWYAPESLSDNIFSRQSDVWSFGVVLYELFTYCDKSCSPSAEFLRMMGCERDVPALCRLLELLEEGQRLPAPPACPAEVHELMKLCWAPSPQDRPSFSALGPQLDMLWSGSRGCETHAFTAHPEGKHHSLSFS

panel of 442 kinases [4] = molecular target: T4, panel of 442 kinases (Homo sapiens, UniProt P08581, M1250T); conditions: kinase MET(M1250T); for remaining activity at 1 µM: read-out: % of control at 1 µM
T4 construct: purchased Ambit Biosciences (scanMAXX KINOMEscan)

panel of 442 kinases [5] = molecular target: T5, panel of 442 kinases (Homo sapiens, UniProt Q16512); conditions: kinase PKN1; for remaining activity at 1 µM: read-out: PKN1 (% of control at 1 µM)
T5 construct: purchased Ambit Biosciences (scanMAXX KINOMEscan)

panel of 442 kinases [6] = molecular target: T6, panel of 442 kinases (Homo sapiens, UniProt Q9P2K8, S808G); conditions: kinase GCN2(Kin.Dom.2,S808G); for remaining activity at 1 µM: read-out: % of control at 1 µM
T6 construct: purchased Ambit Biosciences (scanMAXX KINOMEscan)

[7] = 10 µM, read-out: % of control at 10 µM

T2 sequence (P29376 17-864): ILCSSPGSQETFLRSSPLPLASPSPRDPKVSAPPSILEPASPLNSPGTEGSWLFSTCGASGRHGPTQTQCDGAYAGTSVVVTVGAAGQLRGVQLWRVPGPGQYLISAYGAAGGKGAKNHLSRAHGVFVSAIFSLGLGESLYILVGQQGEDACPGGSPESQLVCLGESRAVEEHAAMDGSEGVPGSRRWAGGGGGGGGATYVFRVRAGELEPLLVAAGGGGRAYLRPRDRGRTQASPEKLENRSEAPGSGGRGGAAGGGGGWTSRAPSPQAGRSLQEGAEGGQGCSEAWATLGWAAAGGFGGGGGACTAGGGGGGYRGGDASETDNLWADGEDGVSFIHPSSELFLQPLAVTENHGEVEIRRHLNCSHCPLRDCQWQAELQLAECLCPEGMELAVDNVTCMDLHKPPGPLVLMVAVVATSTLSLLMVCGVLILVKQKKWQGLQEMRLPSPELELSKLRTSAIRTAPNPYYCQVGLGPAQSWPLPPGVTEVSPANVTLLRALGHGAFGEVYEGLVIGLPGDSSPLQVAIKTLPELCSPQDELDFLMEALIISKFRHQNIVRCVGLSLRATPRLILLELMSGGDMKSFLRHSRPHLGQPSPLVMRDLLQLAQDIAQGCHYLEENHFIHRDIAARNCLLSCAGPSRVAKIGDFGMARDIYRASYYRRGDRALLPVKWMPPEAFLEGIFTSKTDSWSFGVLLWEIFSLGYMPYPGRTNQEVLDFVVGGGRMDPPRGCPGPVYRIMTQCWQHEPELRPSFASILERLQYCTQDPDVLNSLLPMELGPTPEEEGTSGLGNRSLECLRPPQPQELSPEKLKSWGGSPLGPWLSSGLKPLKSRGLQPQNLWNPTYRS
T4 sequence (P08581 25-1390 M1250T): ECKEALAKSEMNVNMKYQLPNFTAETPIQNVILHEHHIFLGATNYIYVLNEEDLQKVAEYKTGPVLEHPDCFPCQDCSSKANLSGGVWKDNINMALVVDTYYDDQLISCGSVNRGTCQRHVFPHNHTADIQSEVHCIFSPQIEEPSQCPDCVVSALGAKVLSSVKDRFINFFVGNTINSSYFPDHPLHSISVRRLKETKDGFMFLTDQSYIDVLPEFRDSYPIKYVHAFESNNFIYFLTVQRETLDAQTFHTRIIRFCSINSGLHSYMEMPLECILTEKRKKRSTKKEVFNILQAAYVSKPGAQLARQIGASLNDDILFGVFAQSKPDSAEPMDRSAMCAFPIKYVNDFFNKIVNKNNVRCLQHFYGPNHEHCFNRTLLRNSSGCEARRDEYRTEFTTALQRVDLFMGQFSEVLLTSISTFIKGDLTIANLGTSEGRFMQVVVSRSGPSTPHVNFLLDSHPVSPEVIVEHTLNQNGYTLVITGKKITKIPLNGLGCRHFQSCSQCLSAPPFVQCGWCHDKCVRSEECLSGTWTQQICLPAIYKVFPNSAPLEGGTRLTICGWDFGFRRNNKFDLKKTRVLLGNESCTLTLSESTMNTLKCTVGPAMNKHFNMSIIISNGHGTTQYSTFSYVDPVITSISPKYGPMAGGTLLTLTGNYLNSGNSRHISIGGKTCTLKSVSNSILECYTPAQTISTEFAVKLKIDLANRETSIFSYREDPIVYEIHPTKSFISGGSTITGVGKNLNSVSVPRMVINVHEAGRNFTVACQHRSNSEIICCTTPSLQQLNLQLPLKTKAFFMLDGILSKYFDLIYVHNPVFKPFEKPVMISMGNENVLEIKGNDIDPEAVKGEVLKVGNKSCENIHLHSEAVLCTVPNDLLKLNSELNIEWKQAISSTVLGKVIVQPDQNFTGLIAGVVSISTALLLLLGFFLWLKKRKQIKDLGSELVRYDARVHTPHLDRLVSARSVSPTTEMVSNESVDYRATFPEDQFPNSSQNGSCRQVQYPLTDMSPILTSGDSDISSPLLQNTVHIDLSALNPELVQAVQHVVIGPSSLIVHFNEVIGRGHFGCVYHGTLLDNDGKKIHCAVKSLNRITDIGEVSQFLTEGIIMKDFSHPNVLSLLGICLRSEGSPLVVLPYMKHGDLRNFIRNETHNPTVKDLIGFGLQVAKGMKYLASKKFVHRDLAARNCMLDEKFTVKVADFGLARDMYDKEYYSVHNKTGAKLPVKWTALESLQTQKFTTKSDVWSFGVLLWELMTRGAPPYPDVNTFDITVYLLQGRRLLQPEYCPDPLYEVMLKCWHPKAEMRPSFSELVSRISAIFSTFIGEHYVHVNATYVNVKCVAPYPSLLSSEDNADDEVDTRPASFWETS
T5 sequence (Q16512 whole entry): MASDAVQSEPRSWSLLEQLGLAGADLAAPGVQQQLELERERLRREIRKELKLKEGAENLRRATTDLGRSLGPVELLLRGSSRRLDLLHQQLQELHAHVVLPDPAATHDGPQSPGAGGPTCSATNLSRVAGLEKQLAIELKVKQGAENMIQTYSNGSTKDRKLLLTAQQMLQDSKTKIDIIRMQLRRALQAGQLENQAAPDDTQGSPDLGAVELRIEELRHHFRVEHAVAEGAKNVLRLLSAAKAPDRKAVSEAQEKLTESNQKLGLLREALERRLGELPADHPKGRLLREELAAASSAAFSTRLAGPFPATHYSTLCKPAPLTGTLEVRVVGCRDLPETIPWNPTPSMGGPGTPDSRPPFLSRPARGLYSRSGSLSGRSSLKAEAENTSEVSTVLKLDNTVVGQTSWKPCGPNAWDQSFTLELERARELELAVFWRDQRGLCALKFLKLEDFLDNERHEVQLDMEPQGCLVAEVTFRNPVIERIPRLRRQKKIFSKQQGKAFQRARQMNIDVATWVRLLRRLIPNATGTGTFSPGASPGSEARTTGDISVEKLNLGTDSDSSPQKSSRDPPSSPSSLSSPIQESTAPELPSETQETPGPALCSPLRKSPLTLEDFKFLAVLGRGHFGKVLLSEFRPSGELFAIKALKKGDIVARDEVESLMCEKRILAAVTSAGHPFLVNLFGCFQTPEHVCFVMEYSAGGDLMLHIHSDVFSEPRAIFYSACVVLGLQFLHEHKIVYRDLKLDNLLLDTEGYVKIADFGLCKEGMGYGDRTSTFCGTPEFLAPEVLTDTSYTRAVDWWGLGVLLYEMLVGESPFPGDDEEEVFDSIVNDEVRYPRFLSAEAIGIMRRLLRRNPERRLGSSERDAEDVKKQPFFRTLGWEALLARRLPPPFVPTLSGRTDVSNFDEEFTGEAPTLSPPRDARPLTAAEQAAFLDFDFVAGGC
T6 sequence (Q9P2K8 whole entry S808G): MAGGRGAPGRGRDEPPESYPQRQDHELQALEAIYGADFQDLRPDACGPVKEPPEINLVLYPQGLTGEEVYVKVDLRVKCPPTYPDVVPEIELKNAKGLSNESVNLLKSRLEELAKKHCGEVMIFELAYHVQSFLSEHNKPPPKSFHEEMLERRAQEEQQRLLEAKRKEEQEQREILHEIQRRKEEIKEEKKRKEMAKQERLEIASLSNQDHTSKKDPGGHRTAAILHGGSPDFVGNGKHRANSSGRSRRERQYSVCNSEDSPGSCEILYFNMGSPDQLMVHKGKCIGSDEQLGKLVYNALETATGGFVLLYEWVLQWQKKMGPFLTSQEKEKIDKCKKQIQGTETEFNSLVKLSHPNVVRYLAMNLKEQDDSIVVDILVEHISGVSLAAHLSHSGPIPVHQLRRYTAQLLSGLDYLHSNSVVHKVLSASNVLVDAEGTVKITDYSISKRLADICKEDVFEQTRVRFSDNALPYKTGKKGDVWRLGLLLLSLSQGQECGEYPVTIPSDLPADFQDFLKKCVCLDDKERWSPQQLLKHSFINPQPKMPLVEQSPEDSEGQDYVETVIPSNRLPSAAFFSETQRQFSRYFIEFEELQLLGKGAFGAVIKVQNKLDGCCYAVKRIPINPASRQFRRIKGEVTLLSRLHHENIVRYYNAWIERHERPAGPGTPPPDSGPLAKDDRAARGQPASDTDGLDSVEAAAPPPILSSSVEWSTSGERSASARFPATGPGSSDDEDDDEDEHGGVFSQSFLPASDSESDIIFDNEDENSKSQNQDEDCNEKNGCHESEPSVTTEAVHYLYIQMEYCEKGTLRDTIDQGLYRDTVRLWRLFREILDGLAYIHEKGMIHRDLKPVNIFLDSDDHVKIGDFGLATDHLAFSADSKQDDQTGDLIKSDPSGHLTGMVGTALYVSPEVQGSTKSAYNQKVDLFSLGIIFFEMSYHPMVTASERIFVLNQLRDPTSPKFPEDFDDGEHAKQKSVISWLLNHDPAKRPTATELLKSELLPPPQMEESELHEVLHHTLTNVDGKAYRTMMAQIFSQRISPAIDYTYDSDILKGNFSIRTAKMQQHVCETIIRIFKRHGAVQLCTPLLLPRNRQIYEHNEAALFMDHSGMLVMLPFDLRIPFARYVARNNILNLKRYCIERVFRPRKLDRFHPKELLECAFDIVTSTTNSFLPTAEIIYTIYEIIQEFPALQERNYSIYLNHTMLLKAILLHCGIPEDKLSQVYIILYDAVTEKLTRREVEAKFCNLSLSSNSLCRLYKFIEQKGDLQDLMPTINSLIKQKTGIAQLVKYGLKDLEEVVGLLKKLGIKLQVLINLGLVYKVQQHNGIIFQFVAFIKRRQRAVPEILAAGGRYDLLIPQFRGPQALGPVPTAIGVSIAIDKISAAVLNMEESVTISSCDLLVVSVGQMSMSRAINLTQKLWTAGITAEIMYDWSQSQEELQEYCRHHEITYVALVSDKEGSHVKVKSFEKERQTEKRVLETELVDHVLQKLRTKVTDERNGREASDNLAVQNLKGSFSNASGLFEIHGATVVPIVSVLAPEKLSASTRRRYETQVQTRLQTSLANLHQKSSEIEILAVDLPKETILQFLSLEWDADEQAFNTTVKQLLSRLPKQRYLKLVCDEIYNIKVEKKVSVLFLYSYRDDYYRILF

SMILES | remaining activity at 1 µM (panel of 442 kinases [1]) [%] | remaining activity at 10 µM (panel of 442 kinases [1]; 10 µM, read-out: PRKD3 (% of control at 10 µM)) [%] | remaining activity at 1 µM (panel of 442 kinases [2]) [%] | remaining activity at 10 µM (panel of 442 kinases [2]; [7]) [%] | remaining activity at 1 µM (panel of 442 kinases [3]) [%] | remaining activity at 10 µM (panel of 442 kinases [3]; [7]) [%] | remaining activity at 1 µM (panel of 442 kinases [4]) [%] | remaining activity at 10 µM (panel of 442 kinases [4]; [7]) [%] | remaining activity at 1 µM (panel of 442 kinases [5]) [%] | remaining activity at 10 µM (panel of 442 kinases [5]; 10 µM, read-out: PKN1 (% of control at 10 µM)) [%] | remaining activity at 1 µM (panel of 442 kinases [6]) [%] | remaining activity at 10 µM (panel of 442 kinases [6]; [7]) [%]
Nc1cc(C(F)(F)F)c(-c2cc(N3CCOCC3)nc(N3CCOCC3)n2)cn1 [Buparlisib] | 94 | 100 | 99 | 100 | 90 | 89 | 92 | 100 | 89 | 100 | 100 | 100
Cn1c(=O)n(-c2ccc(C(C)(C)C#N)cc2)c2c3cc(-c4cnc5ccccc5c4)ccc3ncc21 [Dactolisib, 2-methyl-2-[4-(3-methyl-2-oxo-8-quinolin-3-yl-2,3-dihydroimidazo[4,5-c]quinolin-1-yl)-phenyl] propionitrile] | 100 |  | 23 |  | 37 |  |  |  | 100 |  | 87 | 
COc1ncc(-c2ccc3nccc(-c4ccnnc4)c3c2)cc1NS(=O)(=O)c1ccc(F)cc1F [Omipalisib] | 100 |  | 88 |  | 82 |  | 80 |  | 94 |  | 100 | 
FC(F)c1nc2ccccc2n1-c1nc(N2CCOCC2)nc(N2CCOCC2)n1 [ZSTK474, 2-(difluoromethyl)-1-[4,6-di(4-morpholinyl)-1,3,5-triazin-2-yl]-1H-benzimidazole] | 100 |  | 72 |  | 100 |  | 99 |  | 90 |  | 89 | 

Source: publication PMC5564600 (Oncotarget, 2017)
